Key:
ABCG2 = target: T1, ABCG2 (Homo sapiens, UniProt Q9UNQ0); experiment: ABC transporter-mediated drug efflux assay, ABCG2 (pheophorbide A); conditions: FTC 1 μM, control ABCG2 inhibitor, HEK293/ABCG2
T1 sequence (Q9UNQ0 1-655): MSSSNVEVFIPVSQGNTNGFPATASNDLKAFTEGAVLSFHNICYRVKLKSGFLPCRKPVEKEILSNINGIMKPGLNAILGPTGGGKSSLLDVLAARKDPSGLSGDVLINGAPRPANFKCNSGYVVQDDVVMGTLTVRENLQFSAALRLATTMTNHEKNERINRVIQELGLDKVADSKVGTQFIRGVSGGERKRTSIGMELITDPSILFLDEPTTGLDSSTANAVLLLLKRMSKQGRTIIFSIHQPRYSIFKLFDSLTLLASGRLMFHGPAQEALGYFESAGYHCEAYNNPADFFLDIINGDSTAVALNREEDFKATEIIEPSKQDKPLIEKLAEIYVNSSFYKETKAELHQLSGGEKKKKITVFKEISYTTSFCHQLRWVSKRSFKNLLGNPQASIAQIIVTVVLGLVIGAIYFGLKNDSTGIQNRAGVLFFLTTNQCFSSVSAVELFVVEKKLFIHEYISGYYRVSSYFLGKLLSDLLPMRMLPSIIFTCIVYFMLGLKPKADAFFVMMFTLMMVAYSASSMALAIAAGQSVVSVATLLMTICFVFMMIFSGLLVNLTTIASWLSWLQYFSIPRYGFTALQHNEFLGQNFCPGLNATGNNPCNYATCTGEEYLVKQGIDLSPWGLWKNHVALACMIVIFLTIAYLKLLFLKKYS
Experimental: (§1) Specific inhibitors for ABCB1 (PSC833) and ABCG2 (FTC) were used as a control for comparison. Cells were analyzed by using a LSRFortessa cell analyzer (BD Biosciences). […] At least 10,000 events were collected for quantitative analysis.

ABCB1 = ABCB1 (Homo sapiens, UniProt P08183); experiment: ABC transporter-mediated drug efflux assay, ABCB1 (rhodamine 123); conditions: PSC833 1 μM, control ABCB1 inhibitor, HEK293/ABCB1
Experimental: as §1

Bim (BCL2L11) = experiment: Real-time PCR of Bim expression in H1975; type: cell-based, human; conditions: H1975, 24 h, flunarizine 2.5, 5, or 10 μM or SAHA 0.25, 0.5, or 1 μM; all concentrations tested
Experimental: (§2) Reverse transcription was performed using 1 μg of total RNA sample with the PrimeScript First Strand cDNA Synthesis Kit (TaKaRa Biomedical Technology) at 37 °C for 10 min. The cDNA was then amplified by real-time PCR to determine the relative expression of p27^Kip1 and BIM using the KAPA SYBR FAST qPCR kit (KapaBiosystems, Wilmington, Massachusetts) with a LightCycler 480 Instrument I instrument (Roche Applied Science, Indianapolis, Indiana). The house-keeping gene GAPDH was also measured for normalization. Specific primer sequences used in the PCR reactions are p27^Kip1, forward 5′-[…]-3′ and reverse 5′-[…]-3′; Bim, forward 5′-[…]-3′ and reverse 5′-[…]-3′; and GAPDH, forward 5′-[…]-3′ and reverse 5′-[…]-3′. The PCR temperature program was set at 95 °C for 5 min, followed by 35 cycles of 95 °C for 10 s and 60 °C for 10 s. The fluorescent signal was detected at the end of the PCR elongation step of every cycle to keep track of the amount of amplified DNA. ΔCt was calculated by subtracting the Ct of GAPDH from the Ct of Bim or p27^Kip1. Fold change in gene expression was analyzed by the 2^–ΔΔCt method.

p27^Kip1 (CDKN1B) = experiment: Real-time PCR of p27^Kip1 expression in H1975; type: cell-based, human; conditions: H1975, 24 h, flunarizine 2.5, 5, or 10 μM or SAHA 0.25, 0.5, or 1 μM; all concentrations tested
Experimental: as §2

[1] = cited from earlier work
[2] = test system: histone H3 acetylation (Lys 9,14) (AcH3); experiment: Western blot of histone H3 acetylation (AcH3) in H1975 cells; type: cell-based, human; conditions: 10 μM, 24 h (Figure 1A,B)
Experimental: An increase of histone acetylation is a well-characterized hallmark of HDAC inhibition. […] After the cancer cells were treated with the designated drug candidates, they were harvested in lysis buffer (0.05 M HEPES, 0.15 M NaCl, 2 mM EDTA, 10% v/v glycerol, and 1% v/v Triton X-100, pH 7.4) supplemented with protease and phosphatase inhibitors. Sodium dodecyl sulfate poly(acrylamide) gel electrophoresis (SDS-PAGE) was used to separate the different proteins in the whole cell lysates, which were then transferred to a poly(vinylidene difluoride) membrane for immunoblot analysis using different specific antibodies (acetylated histone H3, acetylated α-tubulin, histone H3, or GAPDH; Cell Signaling Technology). The bands corresponding to specific proteins of interest were visualized by using the WesternBright ECL HRP substrate (Advansta, San Jose, California). A chemiluminescent Western blot signal was detected and analyzed using a ChemiDoc MP system (Bio-Rad Laboratories, Hercules, California).

H1975 cells [3] = conditions: H1975, gefitinib 5 μM alone, 48 h
H820 cells [4] = conditions: H820, gefitinib 5 μM alone, 48 h
H1975 cells [5] = test system: H1975 cells
H820 cells [6] = test system: H820 cells
A549 cells = conditions: A549, gefitinib 5 μM alone, 48 h
Experimental: At least 10,000 events were acquired using a LSRFortessa cell analyzer, and the flow cytometric data were analyzed using BD FACSDiva software (BD Biosciences). Apoptotic cells were defined as the ones stained positive for both Annexin V-FITC and 7-AAD.

in vivo = conditions: NOD SCID γ (NSG), mouse
Experimental: A Zorbax Eclipse XDB-C18 column (4.6 × 250 mm^2, 5 μm, Agilent Technologies) was used to achieve chromatographic separation of the analytes. An isocratic chromatographic system was used. The mobile phase was water:acetonitrile (35:65, v/v) with 0.1% formic acid at a flow rate of 0.25 mL/min. The injection volume of the sample was 10 μL. The triple quadrupole mass spectrometer was operated in positive electrospray ionization mode. The spray voltage was +3000 V, and the vaporizer temperature was 280 °C. The pressure of the collision gas was 1.0 mTorr.

Sequence of ABCB1 (P08183 whole entry, species assumed): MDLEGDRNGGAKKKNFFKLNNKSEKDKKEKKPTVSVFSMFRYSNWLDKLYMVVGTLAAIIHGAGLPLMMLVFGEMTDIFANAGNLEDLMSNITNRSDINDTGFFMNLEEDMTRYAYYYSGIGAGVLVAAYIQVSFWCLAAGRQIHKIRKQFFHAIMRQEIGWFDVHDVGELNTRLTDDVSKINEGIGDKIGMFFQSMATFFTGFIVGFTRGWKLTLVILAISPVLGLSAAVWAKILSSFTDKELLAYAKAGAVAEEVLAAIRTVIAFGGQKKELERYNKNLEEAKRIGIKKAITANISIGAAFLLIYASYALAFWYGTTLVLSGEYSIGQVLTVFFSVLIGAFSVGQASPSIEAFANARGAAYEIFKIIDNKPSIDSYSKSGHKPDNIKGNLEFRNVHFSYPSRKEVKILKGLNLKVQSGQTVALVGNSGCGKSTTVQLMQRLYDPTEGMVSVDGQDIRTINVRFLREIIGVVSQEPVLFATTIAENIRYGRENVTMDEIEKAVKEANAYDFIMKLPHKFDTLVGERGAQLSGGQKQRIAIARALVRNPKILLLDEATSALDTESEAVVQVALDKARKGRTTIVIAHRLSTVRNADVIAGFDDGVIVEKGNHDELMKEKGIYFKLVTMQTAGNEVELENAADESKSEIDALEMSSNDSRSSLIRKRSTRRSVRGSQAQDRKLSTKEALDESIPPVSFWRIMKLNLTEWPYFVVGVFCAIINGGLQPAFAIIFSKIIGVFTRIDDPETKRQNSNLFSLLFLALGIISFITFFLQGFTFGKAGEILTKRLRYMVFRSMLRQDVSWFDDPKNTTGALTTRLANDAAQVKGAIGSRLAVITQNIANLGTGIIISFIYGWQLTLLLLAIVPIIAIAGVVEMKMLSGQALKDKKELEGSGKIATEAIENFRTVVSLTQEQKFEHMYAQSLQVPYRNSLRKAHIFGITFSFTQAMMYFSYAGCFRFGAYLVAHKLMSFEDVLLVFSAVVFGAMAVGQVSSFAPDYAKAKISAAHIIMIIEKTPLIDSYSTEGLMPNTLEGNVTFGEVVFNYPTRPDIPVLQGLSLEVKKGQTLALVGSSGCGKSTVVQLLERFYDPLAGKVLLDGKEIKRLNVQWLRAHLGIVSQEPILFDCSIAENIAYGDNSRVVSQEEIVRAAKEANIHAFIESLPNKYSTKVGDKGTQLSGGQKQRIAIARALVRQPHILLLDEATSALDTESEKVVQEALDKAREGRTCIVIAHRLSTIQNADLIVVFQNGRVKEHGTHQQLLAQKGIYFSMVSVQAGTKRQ

Structure (SMILES): COc1ccc2c3c([nH]c2c1)[C@H](C=C(C)C)N1C(=O)[C@@H]2CCCN2C(=O)[C@@H]1C3 [FTC]
- efflux of pheophorbide A (ABCG2 substrate) (ABCG2): potently inhibited the efflux

Structure (SMILES): C/C=C/C[C@@H](C)C(=O)[C@H]1C(=O)N[C@@H](C(C)C)C(=O)N(C)CC(=O)N(C)[C@@H](CC(C)C)C(=O)N[C@@H](C(C)C)C(=O)N(C)[C@@H](CC(C)C)C(=O)N[C@@H](C)C(=O)N[C@H](C)C(=O)N(C)[C@@H](CC(C)C)C(=O)N(C)[C@@H](CC(C)C)C(=O)N(C)[C@@H](C(C)C)C(=O)N1C [PSC833]
- efflux of rhodamine 123 (ABCB1 substrate) (ABCB1): potently inhibited the efflux

Structure (SMILES): O=C(CCCCCCC(=O)Nc1ccccc1)NO [SAHA, Vorinostat]
- Bim expression (Bim (BCL2L11)): significantly increase
- p27^Kip1 expression (p27^Kip1 (CDKN1B)): significantly increase
- elimination half-life [1]: ~2 h

Structure (SMILES): C(=C\c1ccccc1)/CN1CCN(C(c2ccccc2)c2ccccc2)CC1 [cinnarizine]
- fold increase in histone H3 acetylation (AcH3) over the vehicle control [2]: 15 ± 3 fold

Structure (SMILES): COc1cc2ncnc(Nc3ccc(F)c(Cl)c3)c2cc1OCCCN1CCOCC1 [gefitinib]
- apoptotic cell population (H1975 cells [3]): 8.9 ± 1.3%
- apoptotic cell population (H820 cells [4]): 7.9 ± 1.6%
- viability (H1975 cells [5]): 61 ± 5%
- viability (H1650 cells): 52 ± 8%
- viability (H820 cells [6]): 66 ± 8%
- apoptotic cell population (A549 cells): 7.6 ± 0.9%
- concentration at 4 h (in vivo): 32 ± 6 nM

Structure (SMILES): Nc1nc(N)c2nc(-c3ccccc3)c(N)nc2n1 [triamterene]
- fold increase in histone H3 acetylation (AcH3) over the vehicle control [2]: 75 ± 6 fold

Source: PMC10580381 (ACS Pharmacology & Translational Science, 2023)
